{"source": "patent US20230355674A1", "about": "“DONOR T-CELLS WITH KILL SWITCH” (CSL Behring LLC, priority 2020, published 2023)", "key": {"CEM cells": {"tested_on": "CEM cells", "assay": "Negative selection with MTX or MPA, transduced or transfected CEM cells", "assay_type": "cell-based", "conditions": "1 μM or 10 μM of MPA, day 0 to day 14", "description": "Transduced or transfected CEM cells (such as those from Example 1) were cultured with or without MTX from day 0 to day 14. The medium was refreshed every 3 to 4 days. GFP was analyzed on flow machine and InDel % was analyzed by T7E1 assay."}, "HPRT1 gene [1]": {"tested_on": "HPRT1 gene", "assay": "ICE scoring (indel, knockout score) of gRNA editing in CEM cells", "assay_type": "cell-based, human", "from_the_text": "The top candidate guide RNAs from Example 21 were screen in Jurkat cell lines (n=1) and validated in CEM cell lines (n=2). For instance, Jurkat cells were electroporated with a ribonucleoprotein (RNP) complex containing guide RNA (e.g. an RNP including a guide RNA having any one of SEQ ID NOS: 40-49) together with the Cas9 and tracrRNA. The methodology and analysis was the same for both Jurkat cell lines and CEM cell lines (see also, FIG. 37). Following electroporation, cell viability was measured at different concentrations of 6-TG (see FIG. 36).\n(§1) Indel Percentage—The editing efficiency (percentage of the pool with non-wild type sequence) as determined by comparing the edited trace to the control trace. In the ICE algorithm, potential editing outcomes are proposed and fitted to the observed data using linear regression.\n(§2) Knockout Score—Represents the proportion of cells that have either a frameshift or 21+bp indel. This score is a useful measure for those who are interested in understanding how many of the contributing indels are likely to result in a functional Knockout (KO) of the targeted gene.\n(§3) CEM T cell leukemia cells were electroporated (1600V, 10 ms pulse width, 3 pulses by using the Neon Transfection system) with ribonucleoprotein (RNP) complexes containing guide RNA (see Example 21) designed in-house and obtained from Integrated DNA Technologies (IDT), together with Cas9 and tracrRNA. Cells confirmed to be transfected with the gRNA via the use of the tracr RNA (24 hours post electroporation) were purified using fluorescence activated cells sorting (FACS) prior to culture for a further 72 hours, followed by assessment of cell survival when challenged with increasing concentrations of 6-thioguanine (6-TG) compared to wild type (unmodified) CEM cells."}, "HPRT protein [2]": {"tested_on": "HPRT protein", "assay": "Western blot of HPRT protein in gRNA modified CEM cells", "assay_type": "cell-based, human", "description": "as §3\nUnmodified and modified CEM cells were also used for isolation of protein and detection of the HPRT protein using Western blot (FIG. 39, top panel). […] Actin protein detection (FIG. 39, bottom panel) was used as a protein loading control.\nas §3, with “(gRNA; legend)” for “(see Example 21)”, “10 days in the presence” for “a further 72 hours, followed by assessment”, “10 uM 6-TG, replenished” for “cell survival when challenged”, “fresh 6-TG every 48-72 hours.” for “increasing concentrations of 6-thioguanine (6-TG) compared to wild type (unmodified) CEM cells.”\nFollowing the selection period, protein was extracted from each cell and used for western blot-based detection of the HPRT protein. Detection of beta-actin was used as a protein loading control (Actin Antibody (ACTBD11B7): sc-81178. Santa Cruz)."}, "[3]": {"tested_on": "CEM T cell leukemia cells", "assay": "6-TG selection and 6-TG challenge of gRNA modified CEM cells (cell viability)", "assay_type": "cell-based", "conditions": "CEM, 10 μM 6-TG for 1 week, vs wild-type", "description": "(§4) Cells confirmed to be transfected with the gRNA via the use of the tracr RNA (24 hours post electroporation) were purified using fluorescence activated cells sorting (FACS) prior to culture in 10 μM 6-TG for 1 week replenished with fresh 6-TG every 48-72 hours.\n(§5) After 10 days in the presence of 10 uM 6-TG, replenished with fresh 6-TG every 48-72 hours, each cell line was challenged with increasing concentrations of 6-thioguanine (6-TG) and cell viability was compared to wild type (unmodified) CEM cells (see FIG. 40B)."}, "Jurkat cells [4]": {"tested_on": "Jurkat cells", "assay": "HPRT knockout Jurkat cells, resistance to 6-TG (luminescence, ATP detection)", "assay_type": "cell-based", "conditions": "6-TG tested up to 10 uM, vs wild type", "description": "(§6) Jurkat cells were electroporated with a ribonucleoprotein (RNP) complex containing guide RNA (gRNA; GS-4; designated IDT-4) together with the Cas9 and tracrRNA. Cells which were confirmed to be transfected with the gRNA via tracr RNA were purified using fluorescence activated cells sorting (FACS) and subsequently cultured for 72 hours. Increasing concentrations of 6-thioguanine (6-TG) were then administered to the transduced cultured cells to assess resistance. Wild type (unmodified) Jurkat cells were used as a control.\nLuminescence (ATP detection) was used to assess cell viability."}, "HPRT protein [5]": {"tested_on": "HPRT protein", "assay": "Western blot of HPRT protein in Jurkat cells", "assay_type": "cell-based, human", "conditions": "vs unmodified (WT)", "description": "as §6\nUnmodified (WT) and IDT-4 modified Jurkat cells were also analyzed for HPRT protein using Western blot (see FIG. 25). […] Actin protein detection (bottom panel) was used as a protein loading control."}, "Jurkat cells [6]": {"tested_on": "Jurkat cells", "assay": "HPRT knockout Jurkat cells, MTX dose response", "assay_type": "cell-based", "conditions": "MTX 0.00625 and 0.0125 μM, cultured for 5 days", "description": "Jurkat cells (unmodified; WT) were cultured with increasing concentrations of methotrexate (MTX) to determine the MTX dosage window required to kill WT cells (see FIG. 28). A dose range of between 0.00625 and 0.025 μM MTX was selected for subsequent assessment of HPRT Knockout (IDT-4 modified) Jurkat cells.\nDose response of HPRT Knockout (IDT-4 modified) Jurkat cells to MTX was compared to unmodified Jurkat cells (WT) to determine sensitivity to MTX (see FIG. 29)."}, "[7]": {"assay": "6-TG selection and 6-TG challenge of gRNA modified CEM cells (cell viability)", "assay_type": "cell-based", "conditions": "human, wild type (unmodified) CEM T cell leukemia cells; wild type CEM, 6-TG at 40 uM", "description": "as §4, §5"}, "HPRT1 gene [8]": {"tested_on": "HPRT1 gene", "assay": "ICE scoring (indel, knockout score) of gRNA editing in primary T cells", "assay_type": "cell-based", "conditions": "primary human T cells", "from_the_text": "as §1, §2\nFIG. 44 illustrates a method of modifying primary T-cells in accordance with one embodiment of the present disclosure. FIGS. 45A-45C illustrate 6-TG dose responses seven days following the modification of the primary T-cells in accordance with the modification methods described herein. In particular, FIGS. 45A and 45B illustrate the targeting of Exon 3 (guide RNA 13) and Exon 8 (guide RNA 21). The references “#9” and “#10” denote T-cell number and UT control (electroporated without RNP). […]\n(§7) Peripheral blood mononuclear cells (PBMC) were isolated from Australian Red Cross Blood donor samples (n=2) via density centrifugation. […] By day 7, the original mixed PBMC population was determined to be primarily CD3+ T cells (flow cytometry; data not shown)."}, "primary human T cells [9]": {"tested_on": "primary human T cells", "assay": "6-TG resistance of gRNA modified primary human T cells (viability)", "assay_type": "cell-based", "conditions": "donors #9 and #10, 1 uM 6-TG, day 8 and day 13, vs unmodified", "from_the_text": "FIG. 44 illustrates a method of modifying primary T-cells in accordance with one embodiment of the present disclosure. FIGS. 45A-45C illustrate 6-TG dose responses seven days following the modification of the primary T-cells in accordance with the modification methods described herein. In particular, FIGS. 45A and 45B illustrate the targeting of Exon 3 (guide RNA 13) and Exon 8 (guide RNA 21). The references “#9” and “#10” denote T-cell number and UT control (electroporated without RNP). FIG. 45C illustrates unmodified cells from donor #9 and donor #10 tested with increasing concentrations of 6-TG (day 4). It was observed that the […] primary T-cells were very sensitive to low doses of 6-TG. ICE Scores are shown below.\nas §7\nThe cells were then cultured for about 7 and about 12 days in the presence of 1 uM 6-TG, with 6-TG replenished every about 2 to about 3 days. At each of these time points, the cells were assessed for the proportion of viable cells compared to untreated (UT) controls."}, "primary human T cells [10]": {"tested_on": "primary human T cells", "assay": "MTX dose response in 6-TG selected primary human T cells", "assay_type": "cell-based", "conditions": "primary human T cells after 12 days 1 μM 6-TG, MTX dose range 2 days, thymidine 16 μM", "description": "Primary human T cells modified using guide RNAs targeting the HPRT1 gene and subsequently placed under selection pressure for 12 days with 1 μM 6-TG, with 6-TG replenished every 2 to 3 days, were subjected to a dose range of MTX in the presence of thymidine 16 μM for 2 days and assessed for cell viability."}, "[11]": {"conditions": "after 10 days of 6-TG selection (10 uM)"}}, "note": "“Also recorded” adds a separate entry of the source."}
{"compound": "COc1c(C)c2c(c(O)c1C/C=C(\\C)CCC(=O)O)C(=O)OC2", "note": "[MPA, Mycophenolic acid]", "values": [{"measurement": "HPRT knockout population of CEM cells", "setting": "CEM cells", "result": "eliminated at a faster pace"}, {"measurement": "GFP population of transduced (HPRT knockdown) cells", "setting": "CEM cells; CEM cells", "result": "decreased"}]}
{"compound": "gRNA 18: sgRNA guide and PAM TTATGCTGAGGATTTGGAAAGGG, HPRT 1 target Exon 2 (listed as DNA, chemistry not given here)", "values": [{"measurement": "editing (ICE scoring), in words", "setting": "HPRT1 gene [1]", "result": "efficient editing"}, {"measurement": "HPRT protein (Western blot)", "setting": "HPRT protein [2]; 72 hours post-electroporation, no 6-TG selection, listed as guide 18", "result": "reduced compared to wildtype; also recorded: detectable levels of HPRT protein"}, {"measurement": "HPRT protein (Western blot)", "setting": "HPRT protein [2]; [11]", "result": "limited to no detectable levels of HPRT"}, {"measurement": "cell viability under 6-TG selection", "setting": "[3]", "result": "more variable viability"}]}
{"compound": "IDT-4: lead HPRT knockout guide RNA GGTTATGACCTTGATTTATT (listed as DNA, chemistry not given here)", "values": [{"measurement": "cell viability with increasing doses of 6-TG", "setting": "Jurkat cells [4]", "result": "resistance to increasing doses of 6-TG"}, {"measurement": "HPRT protein level (Western blot)", "setting": "HPRT protein [5]", "result": "undetectable levels of HPRT"}, {"measurement": "sensitivity to MTX compared to wild type cells", "setting": "Jurkat cells [6]", "result": "increased sensitivity to MTX"}]}
{"compound": "Nc1nc2nc[nH]c2c(=S)[nH]1", "note": "[6-TG, 6-thioguanine, reference compound]", "values": [{"measurement": "viability at 40 µM", "setting": "[7]", "result": "~10", "unit": "%"}]}
{"compound": "gRNA 19: sgRNA guide and PAM GTGCTTTGATGTAATCCAGCAGG, HPRT 1 target Exon 3 (listed as DNA, chemistry not given here)", "values": [{"measurement": "editing (ICE scoring), in words", "setting": "HPRT1 gene [1]", "result": "zero editing"}, {"measurement": "HPRT protein (Western blot)", "setting": "HPRT protein [2]; 72 hours post-electroporation, no 6-TG selection, listed as guide 19", "result": "reduced compared to wildtype; also recorded: detectable levels of HPRT protein"}, {"measurement": "HPRT protein (Western blot)", "setting": "HPRT protein [2]; [11]", "result": "limited to no detectable levels of HPRT"}, {"measurement": "cell viability under 6-TG selection", "setting": "[3]", "result": "more variable viability"}]}
{"compound": "gRNA 13: sgRNA guide and PAM AGCCCCCCTTGAGCACACAGAGG, HPRT 1 target Exon 3 (listed as DNA, chemistry not given here)", "values": [{"measurement": "knockout efficiency (ICE scoring)", "setting": "HPRT1 gene [8]", "result": "about 43%"}, {"measurement": "HPRT protein (Western blot)", "setting": "HPRT protein [2]; 72 hours post-electroporation, no 6-TG selection, listed as guide 13", "result": "undetectable levels of HPRT; also recorded: non-detectable"}, {"measurement": "HPRT protein (Western blot)", "setting": "HPRT protein [2]; [11]", "result": "remained undetectable"}, {"measurement": "proportion of viable cells under 6-TG", "setting": "primary human T cells [9]", "result": "increased viability"}, {"measurement": "sensitivity to MTX compared to wild-type non-modified cells (UT)", "setting": "primary human T cells [10]", "result": "increased sensitivity to MTX"}]}
{"compound": "gRNA 12: sgRNA guide and PAM GCCCCCCTTGAGCACACAGAGGG, HPRT 1 target Exon 4 (listed as DNA, chemistry not given here)", "values": [{"measurement": "HPRT protein (Western blot)", "setting": "HPRT protein [2]; 72 hours post-electroporation, no 6-TG selection, listed as guide 12", "result": "undetectable levels of HPRT; also recorded: non-detectable"}, {"measurement": "HPRT protein (Western blot)", "setting": "HPRT protein [2]; [11]", "result": "remained undetectable"}]}
{"compound": "gRNA 22: sgRNA guide and PAM GAAGTATTCATTATAGTCAAGGG, HPRT 1 target Exon 8 (listed as DNA, chemistry not given here)", "values": [{"measurement": "HPRT protein (Western blot)", "setting": "HPRT protein [2]; 72 hours post-electroporation, no 6-TG selection, listed as guide 22", "result": "undetectable levels of HPRT; also recorded: non-detectable"}, {"measurement": "HPRT protein (Western blot)", "setting": "HPRT protein [2]; [11]", "result": "remained undetectable"}]}
{"compound": "gRNA 15: sgRNA guide and PAM GATGTGATGAAGGAGATGGGAGG, HPRT 1 target Exon 3 (listed as DNA, chemistry not given here)", "values": [{"measurement": "editing (ICE scoring), in words", "setting": "HPRT1 gene [1]", "result": "efficient editing"}, {"measurement": "HPRT protein (Western blot)", "setting": "HPRT protein [2]; [11]", "result": "limited to no detectable levels of HPRT"}, {"measurement": "cell viability under 6-TG selection", "setting": "[3]", "result": "more variable viability"}]}
{"compound": "gRNA 17: sgRNA guide and PAM GTAGCCCTCTGTGTGCTCAAGGG, HPRT 1 target Exon 3 (listed as DNA, chemistry not given here)", "values": [{"measurement": "HPRT protein (Western blot)", "setting": "HPRT protein [2]; 72 hours post-electroporation, no 6-TG selection, listed as guide 17", "result": "undetectable levels of HPRT; also recorded: non-detectable"}, {"measurement": "HPRT protein (Western blot)", "setting": "HPRT protein [2]; [11]", "result": "remained undetectable"}]}
